From patent US20240400584A1, “COMPOUNDS AND METHODS FOR MODULATING SPLICING” (REMIX THERAPEUTICS INC., priority 2021, published 2024) come the findings set out here.

What is called IC50 is the midpoint of a concentration-inhibition curve.

Read-outs that look alike come from different tables or passages of the source. Some results are limits rather than exact numbers.

For assay [1], the system named is MYB. The experiment in a line: Gene panel canonical junction qPCR assay, MYB CJ mRNA (Table 7). Format: cell-based. The following applies: Homo sapiens, read-out: MYB CJ mRNA decrease IC50. The method, boiled down:
(§1)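 Canonical-junction transcript levels are quantified by RT-qPCR after compound treatment of K562 or A673 cells. Primers or a CY5 probe overlap the exon junction; signals are normalized to GAPDH, GUSB or PPIA and to DMSO, then scaled to a set ΔCt assay window and fitted for IC50.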

The subject of assay [2] is Target C. Put plainly: Gene panel canonical junction qPCR assay, Target C CJ mRNA (Table 7). It is filed as cell-based, human. The following applies: read-out: Target C CJ mRNA decrease IC50. The method, boiled down: as §1
In assay [3] the test system is HiBit-tagged HTT in K562 cells. The experiment in a line: HiBiT protein abundance assay, HTT. It is filed as cell-based, human. The following applies: HiBiT-modified K562 cells, 24 hours, luminescence. As for the experimental part:
(§2) Compounds described herein were used to screen for effects on quantitative protein abundance using a HiBit assay system (Promega). Quantitative protein abundance was determined by measuring the protein levels of HiBit-tagged protein targets expressed in cell culture via luminescence using the Nano-Glo HiBiT Lytic Detection System, which uses a split complementation assay format to reconstitute NanoBiT enzyme to generate a luminescent signal. A protein abundance assay was developed such that endogenous protein targets could be modified with the HiBiT peptide tag and their abundance could be assessed after compound treatment. Briefly, K562 cell lines containing a HiBiT-modification were treated with various compounds described herein (e.g., compounds of Formulas (I)). After treatment for 24 hours, the protein abundance of a specific target was determined by measuring luminescence.
(§3) Cells were maintained in IMDM with 10% FBS. Before the assay, cells were diluted with […] growth media (IMDM+[…] media) and were seeded in a 384-well plate at a density of 10000 cells/well (for each cell line listed in Table 8). Each compound was prepared as a 10-point 3-fold serial dilution in DMSO with the top dose at a final concentration of 10 μM in the well. Unmodified K562 cells were added at the previously specified density with DMSO to serve as an assay baseline and positive control (PC) and DMSO only with the respective modified cell lines was added to the negative control (NC) columns. Final DMSO concentration was kept at or below 0.25% o. Treated cell plates were placed in an incubator at 37° C. with […] for 24 hours. After 24 hours, 25 μL of Complete HiBit Lytic reagent was added to each well at room temperature (e.g. one plate requiring 10 mL Lytic Buffer, 100 μL LgBiT Protein, 200 μL Lytic Substrate), shaken for 5 minutes at 600 RPM, then left to sit for 10 minutes for signal to stabilize before reading on a Spark Cyto plate reader (Tecan) with a 500 ms measurement time.
(§4) To determine compound effects on protein abundance of each target in Table 9, the percent response for each respective cell line was calculated at each compound concentration as follows:
(§5) For the normalized response at each concentration, a four-parameter logistical regression was fit to the data and the response was interpolated at the […] to determine a concentration for protein abundance at 50% o (IC50) the untreated control.
For orientation: HiBiT is a short tag that completes a luciferase, so light tracks the accessible tagged protein.

Assay [4] has as its system HiBit-tagged MYB in K562 cells. Put plainly: HiBiT protein abundance assay, MYB. Format: cell-based, human. The following applies: HiBiT-modified K562 cells, 24 hours, luminescence. As for the experimental part: as §2, §3, §4, §5
The test system of assay [5] is HiBit-tagged Target C in K562 cells. Put plainly: HiBiT protein abundance assay, Target C. Format: cell-based, human. The following applies: HiBiT-modified K562 cells, 24 hours, luminescence. As for the experimental part:
as §2, §3, §4, §5

With `CC1(C)CC(Nc2ccc3c(n2)COc2cc(-n4cccn4)ccc2-3)CC(C)(C)N1` [Compound 134], the half-maximal inhibitory concentration (IC50) is 1000 to 10000 nM in assay [1]; under 100 nM in assay [2] (Homo sapiens); 1000 to 10000 nM in assay [3]; 1000 to 10000 nM in assay [4]; 1000 to 10000 nM in assay [5].

For `CN(c1cnc2c(n1)OCc1cc(-c3cn[nH]c3)ccc1-2)C1CC(C)(C)NC(C)(C)C1` [Compound 142], the IC50 in assay [1] was 100 to 1000 nM; in assay [2], 1000 to 10000 nM; in assay [3], 100 to 1000 nM; in assay [4], 1000 to 10000 nM; in assay [5], 1000 to 10000 nM.

Consider `c1cc2c(cc1-c1cn[nH]c1)COc1nc(N[C@@H]3C[C@H]4CC[C@@H](C3)N4)cnc1-2` [Compound 143], for which the IC50 was in the range of 100 to 1000 nM in assay [1]; 100 to 1000 nM in assay [2] (Homo sapiens); 100 to 1000 nM in assay [3]; 1000 to 10000 nM in assay [4]; 100 to 1000 nM in assay [5].

Regarding `CN(c1cnc2c(n1)OCc1cc(-c3cn[nH]c3)ccc1-2)[C@@H]1C[C@H]2CC[C@@H](C1)N2` [Compound 144], the IC50 in assay [1] was 100 to 1000 nM; in assay [2] (Homo sapiens), 100 to 1000 nM; in assay [3], under 100 nM; in assay [4], 100 to 1000 nM; in assay [5] it was under 100 nM.

For `CN(c1ccc2c(n1)OCCc1cc(-c3cn[nH]c3)ccc1-2)C1CC(C)(C)NC(C)(C)C1` [Compound 145], the IC50 in assay [1], in assay [2] (Homo sapiens), in assay [3], in assay [4] and in assay [5] was 1000 to 10000 nM in each case.

Turning to `CN(c1ccc2c(n1)OCCc1cc(-c3cn[nH]c3)ccc1-2)[C@@H]1C[C@H]2CC[C@@H](C1)N2` [Compound 146], the IC50 in assay [1] was over 10000 nM; in assay [2] (Homo sapiens) it was over 10000 nM; in assay [3] it was 1000 to 10000 nM; in assay [4], 1000 to 10000 nM; in assay [5], 1000 to 10000 nM.

In the case of `CN(c1ccc2c(n1)OCc1cc(-c3cn[nH]c3)ccc1-2)C1CC(C)(C)NC(C)(C)C1` [Compound 147], the IC50 was 1000 to 10000 nM in assay [1]; 100 to 1000 nM in assay [2] (Homo sapiens); 100 to 1000 nM in assay [3]; 100 to 1000 nM in assay [4]; 100 to 1000 nM in assay [5].

For the compound `CN(c1ccc2c(n1)OCc1cc(-n3cccn3)ccc1-2)C1CC(C)(C)NC(C)(C)C1` [Compound 148], the IC50 in assay [1], in assay [2] (Homo sapiens), in assay [3], in assay [4] and in assay [5] was 1000 to 10000 nM each time.

In the case of `CN(c1ccc2c(n1)OCc1cc(-n3cccn3)ccc1-2)[C@@H]1C[C@H]2CC[C@@H](C1)N2` [Compound 149], the IC50 in assay [1], in assay [2] (Homo sapiens), in assay [3], in assay [4] and in assay [5] was 100 to 1000 nM each time.

In the case of `CN(c1ccc2c(n1)OCc1cc(-n3nccn3)ccc1-2)[C@@H]1C[C@H]2CC[C@@H](C1)N2` [Compound 151], the IC50 was 100 to 1000 nM in assay [1]; 100 to 1000 nM in assay [2] (Homo sapiens); under 100 nM in assay [3]; 100 to 1000 nM in assay [4]; under 100 nM in assay [5].

Consider `CN(c1ccc2c(n1)OCc1cc(-n3ccnn3)ccc1-2)[C@@H]1C[C@H]2CC[C@@H](C1)N2` [Compound 152], for which the IC50 in assay [1] was 100 to 1000 nM; in assay [2] (Homo sapiens) it was 100 to 1000 nM; in assay [3] it was under 100 nM; in assay [4], 100 to 1000 nM; in assay [5], 100 to 1000 nM.

On to `CN(c1ccc2c(n1)OCc1cc(-c3ccn(C)c(=O)c3)ccc1-2)[C@@H]1C[C@H]2CC[C@@H](C1)N2` [Compound 153], for which the IC50 was 100 to 1000 nM in assay [1]; under 100 nM in assay [2] (Homo sapiens); under 100 nM in assay [3]; under 100 nM in assay [4]; under 100 nM in assay [5].

In the case of `Cc1[nH]ncc1-c1ccc2c(c1)COc1nc(N(C)[C@@H]3C[C@H]4CC[C@@H](C3)N4)ccc1-2` [Compound 154], the IC50 is 100 to 1000 nM in assay [1]; 100 to 1000 nM in assay [2] (Homo sapiens); under 100 nM in assay [3]; 100 to 1000 nM in assay [4]; 100 to 1000 nM in assay [5].

In the case of `Cc1ncc(-c2ccc3c(c2)COc2nc(N(C)[C@@H]4C[C@H]5CC[C@@H](C4)N5)ccc2-3)o1` [Compound 155], the IC50 is 100 to 1000 nM in assay [1]; 100 to 1000 nM in assay [2] (Homo sapiens); under 100 nM in assay [3]; 100 to 1000 nM in assay [4]; under 100 nM in assay [5].

Consider `COc1cc(-c2ccc3c(c2)COc2nc(N(C)[C@@H]4C[C@H]5CC[C@@H](C4)N5)ccc2-3)ccn1` [Compound 156], for which the IC50 is 100 to 1000 nM in assay [1]; 100 to 1000 nM in assay [2] (Homo sapiens); under 100 nM in assay [3]; 100 to 1000 nM in assay [4]; 100 to 1000 nM in assay [5].

`CN(c1ccc2c(n1)OCc1cc(-c3ccc(=O)[nH]c3)ccc1-2)[C@@H]1C[C@H]2CC[C@@H](C1)N2` [Compound 157]: the IC50 is 1000 to 10000 nM in assay [1]; 1000 to 10000 nM in assay [2] (Homo sapiens); 100 to 1000 nM in assay [3]; 1000 to 10000 nM in assay [4]; 1000 to 10000 nM in assay [5].

`CN(c1ccc2c(n1)OCc1cc(-c3ccc(=O)n(C)c3)ccc1-2)[C@@H]1C[C@H]2CC[C@@H](C1)N2` [Compound 158]: the IC50 was 100 to 1000 nM in assay [1]; 100 to 1000 nM in assay [2] (Homo sapiens); under 100 nM in assay [3]; 100 to 1000 nM in assay [4]; 1000 to 10000 nM in assay [5].

Consider `COc1cc(-c2ccc3c(c2)COc2nc(N(C)[C@@H]4C[C@H]5CC[C@@H](C4)N5)ccc2-3)cnn1` [Compound 159], for which the IC50 in assay [1], in assay [2] (Homo sapiens), in assay [3], in assay [4] and in assay [5] was under 100 nM in each case.

Regarding `CN(c1ccc2c(n1)OCc1cc(-c3cnn(C)c(=O)c3)ccc1-2)[C@@H]1C[C@H]2CC[C@@H](C1)N2` [Compound 160], the half-maximal inhibitory concentration (IC50) in assay [1] was 100 to 1000 nM; in assay [2] (Homo sapiens), under 100 nM; in assay [3], under 100 nM; in assay [4], 100 to 1000 nM; in assay [5], under 100 nM.

For the compound `CN(c1ccc2c(n1)OCc1cc(-c3cnc(=O)[nH]c3)ccc1-2)[C@@H]1C[C@H]2CC[C@@H](C1)N2` [Compound 161], the IC50 in assay [1], in assay [2] (Homo sapiens), in assay [3], in assay [4] and in assay [5] was over 10000 nM throughout.

As to `CN(c1ccc2c(n1)OCc1cc(-c3cc(=O)n(C)cn3)ccc1-2)[C@@H]1C[C@H]2CC[C@@H](C1)N2` [Compound 162], the IC50 in assay [1] is 100 to 1000 nM; in assay [2] (Homo sapiens), under 100 nM; in assay [3], under 100 nM; in assay [4], 100 to 1000 nM; in assay [5], under 100 nM.

As for `CN(c1ccc2c(n1)OCc1cc(-n3ccnc3)ccc1-2)[C@@H]1C[C@H]2CC[C@@H](C1)N2` [Compound 163], the IC50 in assay [1] is 100 to 1000 nM; in assay [2] (Homo sapiens), 100 to 1000 nM; in assay [3] it was under 100 nM; in assay [4], under 100 nM; in assay [5] it was under 100 nM.

For `Cc1cn(-c2ccc3c(c2)COc2nc(N(C)[C@@H]4C[C@H]5CC[C@@H](C4)N5)ccc2-3)cn1` [Compound 164], the IC50 in assay [1] was 100 to 1000 nM; in assay [2] (Homo sapiens), 100 to 1000 nM; in assay [3], under 100 nM; in assay [4], 100 to 1000 nM; in assay [5], under 100 nM.
